According to ChEMBL document CHEMBL2203134, “Discovery of XL888: a novel tropane-derived small molecule inhibitor of HSP90” (Bioorg Med Chem Lett, 2012):
Values after ≈ are worked out from the molar mass of the structure shown. Active and inactive are the calls of the source. The rule behind the calls is not given here.

Key:
[1] = Apparent permeability across MDCK cells; assay type: ADME, cell-based, Canis lupus familiaris; details: dog
[2] = biological target: T1, Heat shock protein HSP90 (Homo sapiens, UniProt P07900+P08238); assay: Inhibition of Hsp90 in human NCI-N87 cells assessed as Her2 degradation after 24 hrs by Western blot analysis; assay type: cell-based
[3] = biological target: T1, Heat shock protein HSP90; assay: Displacement of biotinylated geldanamycin from human His-tagged Hsp90 by TR-FRET assay; assay type: protein assay
[4] = Oral bioavailability in rat at 5 mg/kg; assay type: ADME, organism-based; details: in vivo
[5] = system: Rattus norvegicus; assay: Dose normalized AUC in rat at 5 mg/kg, iv; assay type: ADME, organism-based; parameters: dose 5 mg/kg, route intravenous; details: in vivo
[6] = Clearance in rat at 5 mg/kg, iv; assay type: ADME, organism-based; parameters: dose 5 mg/kg, route intravenous; details: in vivo
[7] = Half life in rat at 5 mg/kg, iv; assay type: ADME, organism-based; parameters: dose 5 mg/kg, route intravenous; details: in vivo
[8] = Drug metabolism in human liver microsomes at 15 uM after 30 mins; assay type: ADME, Microsome; details: read-out: Drug metabolism
[9] = Half life in iv dosed rat; assay type: ADME, organism-based; details: in vivo
[10] = Kinetic solubility of the compound; assay type: physicochemical; details: read-out: Kinetic_solubility
[11] = Clearance in iv dosed rat; assay type: ADME, organism-based; details: in vivo
[12] = Oral bioavailability in rat; assay type: ADME, organism-based; details: in vivo
[13] = biological target: T1, Heat shock protein HSP90; assay: Inhibition of Hsp90 in human A549 cells assessed as Raf1 degradation after 24 hrs by Western blot analysis; assay type: cell-based
[14] = system: Rattus norvegicus; assay: Dose normalized AUC in iv dosed rat; assay type: ADME, organism-based; details: in vivo
[15] = Half life in rat at 2.5 mg/kg, iv; assay type: ADME, organism-based; parameters: dose 2.5 mg/kg, route intravenous; details: in vivo
[16] = Oral bioavailability in rat at 2.5 mg/kg; assay type: ADME, organism-based; details: in vivo
[17] = Clearance in rat at 2.5 mg/kg, iv; assay type: ADME, organism-based; parameters: dose 2.5 mg/kg, route intravenous; details: in vivo
[18] = system: Rattus norvegicus; assay: Dose normalized AUC in rat at 2.5 mg/kg, iv; assay type: ADME, organism-based; parameters: dose 2.5 mg/kg, route intravenous; details: in vivo
[19] = system: Mus musculus; assay: Inhibition of Hsp90 in human COLO205 cells xenografted in mouse assessed as Her2 degradation at 100 mg/kg administered QD for 2 days measured 8 hrs post-last dose; assay type: functional; details: COLO 205
[20] = system: Mus musculus; assay: Inhibition of Hsp90 in human COLO205 cells xenografted in mouse assessed as Raf1 degradation at 100 mg/kg administered QD for 2 days measured 8 hrs post-last dose; assay type: functional; details: COLO 205
[21] = Drug metabolism in mouse liver microsomes at 15 uM after 30 mins; assay type: ADME, Microsome; details: read-out: Drug metabolism

| SMILES | Papp [1] [×10⁻⁶ cm/s] | IC50 [2] [nM] | IC50 [3] [nM] | IC50 [13] [nM] | half-life [15] [h] | bioavailability [16] [%] | clearance [17] [mL/min/kg] | AUC/dose [18] [µM·kg·h/mg] | other results |
| --- | --- | --- | --- | --- | --- | --- | --- | --- | --- |
| CCC(CC)Nc1cc(C(=O)NC2CC3CCC(C2)N3c2ccc(C(=O)C3CC3)cn2)ccc1C(N)=O (stereo not given) | 14.1 | 117 | 86 | – | – | – | – | – | bioavailability [4]: 11%; AUC/dose [5]: 0.78 µM·kg·h/mg; clearance [6]: 39.7 mL/min/kg; half-life [7]: 0.5 h |
| COc1cccc(C(=O)NC2CC3CCC(C2)N3c2ccc(C(=O)N[C@@H](C)c3ccc(N4CCN(C)CC4)cc3)cn2)c1C (stereo not given in full) | 6.3 | – | 200 | 374 | – | – | – | – | metabolised at 0.5 h, 15 µM [8]: 37%; half-life [9]: 6.4 h; solubility kinetic [10]: 447 µM (≈ 267 µg/mL); clearance [11]: 34.3 mL/min/kg; bioavailability [12]: 30%; AUC/dose [14]: 0.71 µM·kg·h/mg |
| C[C@H](NC(=O)c1ccc(N2C3CCC2CC(NC(=O)c2ccc(C(N)=O)c(Nc4ccccc4)c2)C3)nc1)c1ccc(N2CCN(C)CC2)cc1 (stereo not given in full) | 0.32 | – | 260 | 105 | – | – | – | – | – |
| Cc1cc(CO)ccc1C(=O)NC1CC2CCC(C1)N2c1ccc(C(=O)NCc2ccccc2)cn1 (stereo not given) | 3 | – | 128 | 1900 | – | – | – | – | – |
| Cc1cc(C(=O)NC2CC3CCC(C2)N3c2ccc(C(=O)NCc3ccccc3)cn2)c(C)cc1C(N)=O (stereo not given) | 3 | – | – | > 10000 | – | – | – | – | – |
| Cc1cc(C(N)=O)c(NC2CCCC2)cc1C(=O)NC1CC2CCC(C1)N2c1ccc(C(=O)C2CC2)cn1 (stereo not given) | 14.6 | 316 | 27 | – | 1.1 | 28 | 14.5 | 2.26 | – |
| Cc1cc(C(=O)NC2CC3CCC(C2)N3c2ccc(C(=O)N[C@@H](C)c3ccc(N4CCN(C)CC4)cc3)cn2)c(C)cc1C(N)=O (stereo not given in full) | < 0.01 | – | 53 | 2900 | – | – | – | – | – |
| C[C@H](NC(=O)c1ccc(N2C3CCC2CC(NC(=O)c2ccc(C(N)=O)c(NCC4CC4)c2)C3)nc1)c1ccc(N2CCN(C)CC2)cc1 (stereo not given in full) | 0.15 | – | 80 | 42 | – | – | – | – | clearance [11]: 157 mL/min/kg |
| Cc1cc(C(N)=O)c(NC(C)C)cc1C(=O)NC1CC2CCC(C1)N2c1ccc(C(=O)C2CC2)cn1 (stereo not given) | 20.6 | 130 | 21 | – | 1.5 | 33 | 63.2 | 0.57 | – |
| CCNC(=O)c1ccc(N2C3CCC2CC(NC(=O)c2ccc(C(N)=O)c(NCC4CC4)c2)C3)nc1 (stereo not given) | 32.4 | 2170 | 104 | – | – | – | – | – | – |
| NC(=O)c1ccc(C(=O)NC2CC3CCC(C2)N3c2ccc(C(=O)NC3CCCC3)cn2)cc1NCC1CC1 (stereo not given) | 4.8 | 351 | 89 | – | 0.6 | 0 | 63.5 | 0.49 | – |
| COc1cccc(C(=O)NC2CC3CCC(C2)N3c2ccc(C(=O)NCc3ccc(N4CCN(C)CC4)cc3)cn2)c1C (stereo not given) | 7.4 | – | 108 | 579 | – | – | – | – | metabolised at 0.5 h, 15 µM [8]: 28%; half-life [9]: 6.5 h; solubility kinetic [10]: 285 µM (≈ 166 µg/mL); clearance [11]: 112 mL/min/kg; bioavailability [12]: 28%; AUC/dose [14]: 0.23 µM·kg·h/mg |
| CC(C)C(=O)c1ccc(N2C3CCC2CC(NC(=O)c2ccc(C(N)=O)c(NCC4CC4)c2)C3)nc1 (stereo not given) | – | 1610 | 1140 | – | – | – | – | – | – |
| C[C@H](NC(=O)c1ccc(N2C3CCC2CC(NC(=O)c2ccc(C(N)=O)c(NC4CCC4)c2)C3)nc1)c1ccc(N2CCN(C)CC2)cc1 (stereo not given in full) | 0.46 | – | 160 | 59 | – | – | – | – | – |
| Cc1cc(C(N)=O)c(NCC2CC2)cc1C(=O)NC1CC2CCC(C1)N2c1ccc(C(=O)C2CC2)cn1 (stereo not given) | 22.3 | 245 | 25 | – | 0.9 | 51 | 19.7 | 1.7 | – |
| Cc1cc(C(N)=O)ccc1C(=O)NC1CC2CCC(C1)N2c1ccc(C(=O)NCc2ccccc2)cn1 (stereo not given) | 0.21 | – | 598 | 2700 | – | – | – | – | – |
| CC(=O)c1ccc(N2C3CCC2CC(NC(=O)c2ccc(C(N)=O)c(NCC4CC4)c2)C3)nc1 (stereo not given) | 44.2 | 182 | 40 | – | 7 | 42 | 71.5 | 0.5 | – |
| COc1cccc(C(=O)NC2CC3CCC(C2)N3c2ccc(C(=O)N[C@H](C)c3ccccc3)cn2)c1C (stereo not given in full) | – | – | 7450 | > 10000 | – | – | – | – | – |
| O=C(NCc1ccccc1)c1ccc(N2C3CCC2CC(NC(=O)c2ccc(CO)cc2)C3)nc1 (stereo not given) | 2.5 | – | 322 | 5400 | – | – | – | – | – |
| NC(=O)c1ccc(C(=O)NC2CC3CCC(C2)N3c2ccc(C(=O)C3CC3)cn2)cc1NCC1CC1 (stereo not given) | 50.3 | 494 | 120 | – | 22 | 41 | 8.43 | 3.7 | – |
| CCC(CC)Nc1cc(C(=O)NC2CC3CCC(C2)N3c2ccc(C(=O)C3CC3)cn2)c(C)cc1C(N)=O (stereo not given) | 14.3 | 82 | 25 | – | 1.8 | 29 | 30.8 | 1.04 | – |
| COc1cccc(C(=O)NC2CC3CCC(C2)N3c2ccc(C(=O)N[C@@H](C)c3ccccc3)cn2)c1C (stereo not given in full) | 38 | – | 126 | 421 | – | – | – | – | metabolised at 0.5 h, 15 µM [8]: 68%; solubility kinetic [10]: 2.2 µM (≈ 1.1 µg/mL) |
| CO[C@H]1/C=C\C=C(/C)C(=O)NC2=CC(=O)C(NCCN(C)C)=C(C[C@@H](C)C[C@H](OC)[C@H](O)[C@@H](C)/C=C(\C)[C@@H]1OC(N)=O)C2=O [ALVESPIMYCIN] | – | – | – | – | – | – | – | – | inhibition [19]: inactive; inhibition in vivo at 100 mg/kg [20]: 84% |
| CCC(CC)Nc1cc(C(=O)NC2CC3CCC(C2)N3c2ccc(C(C)=O)cn2)ccc1C(N)=O (stereo not given) | 67.6 | 52 | 38 | – | – | – | – | – | bioavailability [4]: 5%; AUC/dose [5]: 1.22 µM·kg·h/mg; clearance [6]: 28.5 mL/min/kg; half-life [7]: 0.5 h |
| NC(=O)c1ccc(C(=O)NC2CC3CCC(C2)N3c2ccc(C(=O)NCc3ccccc3)cn2)cc1 (stereo not given) | 0.06 | – | 445 | 5200 | – | – | – | – | – |
| CCC(CC)Nc1cc(C(=O)NC2CC3CCC(C2)N3c2ccc(C(C)=O)cn2)c(C)cc1C(N)=O (stereo not given) | – | 44 | 28 | – | – | – | – | – | bioavailability [4]: 4%; AUC/dose [5]: 0.6 µM·kg·h/mg; clearance [6]: 51.8 mL/min/kg; half-life [7]: 1.7 h |
| CC[C@H](C)Nc1cc(C(=O)NC2CC3CCC(C2)N3c2ccc(C(=O)C3CC3)cn2)c(C)cc1C(N)=O (stereo not given in full) | 24 | 252 | – | – | 1 | 20 | 38.5 | 0.87 | – |
| COc1cccc(C(=O)NC2CC3CCC(C2)N3c2ccc(C(=O)NCc3ccccc3)cn2)c1C (stereo not given) | 50.5 | – | – | – | 0.72 | 4 | 38.1 | 0.9 | metabolised at 0.5 h, 15 µM [8]: 64%; solubility kinetic [10]: 4.1 µM (≈ 1.99 µg/mL); metabolised at 0.5 h, 15 µM [21]: 79% |
| CCCNc1cc(C(=O)NC2CC3CCC(C2)N3c2ccc(C(=O)C3CC3)cn2)c(C)cc1C(N)=O (stereo not given) | 23.4 | 1122 | 24 | – | – | – | – | – | – |
